Source: patent US9062095B2, “Mutant double cyclized receptor peptides inhibiting β1-adrenoceptor antibodies” (JULIUS-MAXIMILIANS-UNIVERSTITAT-WURZBURG, priority 2007, dated 2015)
Positions of bridges follow the written chain, without caps; N, C: chain ends. No end group written: not given here.

Key:
[1] = tested on: beta1-receptor antibodies; assay: in vivo prevention study: five prophylactic peptide applications, serum antibody-titers by ELISA; parameters: species or system rat; conditions: 1.0 mg/kg body weight i.v., 4-weekly, prevention protocol (FIG. 12)
Description: FIG. 12 is a diagram resuming the in vivo blocking capacity of in total five (prophylatic) applications of various linear and cyclic beta1-ECII-peptides, started 3 months after the first immunization (and two subsequent beta1-ECII/GST-antigen-boosts, corresponding to a prevention protocol). Serum-titers of the beta1-receptor antibodies were determined before and 18-20 h after each peptide injection (abscissa, time in months) and are given in % of the corresponding antibody-titers of immunized untreated rats (y-axis, ordinate). The injected peptides were: 25AA Cys/Cys linear peptide (black squares), […] (white squares), 18AA Cys/Cys cyclopeptide (black diamond), 18AA Cys/Ser cyclopeptide mutant (white diamonds), and the 18AA Cys/Ser linear peptide mutant (vertically hatched diamonds). […] Black circles indicate antibody-titers of untreated regularly (every 4 weeks) immunized animals serving as reference, set at 100%.
The in-vivo blocking effects of both 25AA and 18AA Cys/Ser mutant cyclopeptides (with a Gln closure site), the 18AA Ser/Cys mutant cyclopeptide, and a mutated linear 18AA Cys/Ser peptide were analyzed after intravenous (i.v.) injection of 1.0 mg/kg body weight (Bw) of each construct into freshly immunized antibody-positive rats (i.e., use of cyclo-peptides in a kind of “prevention” study), with a first cyclopeptide-application 3 months after the initial immunization (and two subsequent boost at months 2 and 3). In total, five prophylactic applications of the various constructs were given at 4-weekly intervals, always two weeks after the monthly continued antigen boost. Sera were drawn 18-20 hours after i.v. injection and assayed for reactivity by ELISA using the 3 Cys-containing linear 25AA Cys/Cys-peptide as an antigen (FIG. 12).

anti-β1-ECII antibodies = assay: ELISA-competition assay: peptide preincubated with sera/IgG of immunized antibody-positive rats, linear 25AA Cys/Cys-peptide as antigen; type: binding, rat; parameters: blocking capacity (% of blocked versus non-blocked ELISA-reactivity): concentration or dose not given beside the values; conditions: for decrease in circulating free anti-beta1-ECII antibodies: n=6 sera (FIG. 11); for blocking capacity (% of blocked versus non-blocked ELISA-reactivity): IgG from n=78 immunized antibody-positive rats, preincubation 12 h, mutants with D-Glu ring closure (FIG. 7); for blocking capacity (% of blocked versus non-blocked ELISA-reactivity) / blocking-efficiency versus unblocked sera: 4° C.; for blocking capacity (% of blocked versus non-blocked ELISA-reactivity) / blocking efficiency (% of blocked versus non-blocked ELISA reactivity) / blocking capacity (% of blocked versus non-blocked ELISA reactivity): ±SEM; for blocking-efficiency versus unblocked sera: n=6 sera, incubation 12-14 h, mean ±SEM (FIG. 27); for blocking efficiency (% of blocked versus non-blocked ELISA reactivity): type1 sera (93%, n=64 of 69), FIG. 9 upper panel; for blocking capacity (% of blocked versus non-blocked ELISA reactivity): type 2 sera (7%, n=5 of 69), FIG. 9 lower panel
Description: FIG. 9 is a diagram composed of two major-(upper and lower) panels resuming the blocking effect of both 25AA- and 18AA-cyclopeptide mutants having a Gln closure site, as well as 18AA cyclopeptide mutants having a D-Glu closure site after preincubation (12 h, 4° C., rotating incubation) with sera isolated from 69 different immunized antibody-positive rats in an ELISA-competition assay using the 3 Cys-containing linear 25AA Cys/Cys-peptide as an antigen. The upper panel depicts rat sera preferentially reacting with the Cys/Ser mutated cyclopeptides (type1 reaction, n=64), separated in cyc25AA(Gln)-peptides (left) and cyc18AA(Gln and D-Glu)-peptides (right). The lower panel depicts the rat sera reacting with both the Cys/Ser and the Ser/Cys mutated cyclopeptides (type2 reaction, n=5), again separated in the results obtained with cyc25AA(Gln)-peptides (left) and cyc18AA(Gln and D-Glu)-peptides (right).
FIG. 11 is a diagram resuming the dose-dependent (x-axis, abscissa: fold molar excess of specific peptides) blocking capacity of various linear and cyclic beta1-ECII-peptides given in % of the unblocked antibody-titer (y-axis, ordinate), including 25AA Cys/Cys linear peptides (black squares), 25AA Cys/Ser cyclopeptide mutants (white squares), 18AA Cys/Cys cyclo-peptides (black diamonds), 18AA Cys/Ser cyclopeptide mutants (white diamonds), and 18AA Cys/Ser linear peptide mutants (vertically hatched diamonds) in an ELISA competition assay performed with sera from n=6 randomly chosen immunized antibody-positive rats.
FIGS. 27A and B depict the in vitro blocking (=neutralization) capacity of various cysteine-containing cyclopeptide variants of the second extracellular loop (ECII) of the human beta1-adrenergic receptor, determined by testing n=6 individual sera (27A) of immunized beta1-ECII-antibody-positive rats after over-night incubation with the indicated cyclopeptides (12-14 h, 4° C.) by ELISA. Columns in 27A represent the receptor-antibody blocking efficiency of the indicated cyclopeptides in % of the antibody-(ELISA-)signals obtained with unblocked antibody-positive rat sera. Columns in 27B represent the mean blocking efficiency for each cyclopeptide, error bars indicate ±SEM.
The blocking capacity of β1-ECII-18AA cyclopeptide mutants (Cys13-Ser14 or Ser13-Cys14 mutation having an additional D-Glu-Gln exchange, e.g. at the ring closure site) was compared with the 3 Cys-containing 25AA or 18AA Cys/Cys cyclopeptides after preincubation (12 h, 4° C., rotating incubation over-night) of different numbers of sera from immunized antibody-positive rats in an ELISA-competition assay using the 3 Cys-containing linear 25AA Cys/Cys-peptide as an antigen. FIGS. 4, 5, and 7-10 show the results from measurements performed with sera of n=12 up to n=82 immunized antibody-positive rats using different cyclopeptides of the present invention.

[2] = tested on: anti-beta1-receptor antibody-titers; assay: in vivo therapy study in long term immunized cardiomyopathic rats: antibody-titers by ELISA; parameters: species or system rat
Description: FIG. 16A is a diagram resuming the in vivo blocking effect of both 25AA and 18AA cyclopeptide mutants with a Gln closure site, determined after a total of nine intravenous (i.v.) in-jections of 1.0 mg/kg body weight (Bw) of the indicated peptides into immunized antibody-positive rats. Sera were drawn before and 18-20 hours after i.v. injection of the various peptides every 4 weeks (abscissa: time in months of treatment) and assayed for reactivity by ELISA using the 3 Cys-containing linear 25AA Cys/Cys-peptide as an antigen.
FIG. 16B is a diagram resuming the in vivo blocking effect of various concentrations of 18AA cyclopeptide mutants with a Gln closure site, determined after a total of nine intra-venous (i.v.) injections of 0.25, 1.0, 2.0, and 4.0 mg/kg body weight (Bw) into immunized antibody-positive rats, irrespective of the cyclopeptide “responder-state” of individual animals. Sera were drawn before and 18-20 hours after i.v. injection of the various peptides every 4 weeks (abscissa: time in months), and assayed for reactivity by ELISA using the 3 Cys-containing linear 25AA Cys/Cys-peptide as an antigen.
Sera were drawn as described above and assayed for reactivity by ELISA using the 3 Cys-containing linear 25AA Cys/Cys-peptide as an antigen.
Moreover, the in vivo blocking effects of therapeutically used 25AA and 18AA Cys/Ser cyclo-peptide mutants, the 18AA Ser/Cys mutant (Gln-)cyclopeptide, and a mutated linear 18AA Cys/Ser peptide were assessed after a first intravenous (i.v.) dose (i.e., 1.0 mg/kg body weight (Bw)) of each construct injected into long term immunized anti-beta1-ECII antibody-positive rats, yet presenting a cardiomyopathic phenotype (after nine months of 1× monthly immunization with the beta1-ECII/GST antigen; FIGS. 14-16 and 17). Sera were drawn 18-20 hours after the first i.v. injection of the various constructions and assayed for reactivity by ELISA using the 3 Cys-containing linear 25AA Cys/Cys-peptide as an antigen.
The latter doses were almost equally efficient in terms of both, neutralization of circulating receptor antibodies (FIGS. 16b and c), and reversal of antibody-induced cardiomyopathic features (FIGS. 17b, 19b, 20, and 21b).
In order to generate anti-β1-receptor antibodies the animals were immunized with a fusion protein containing bacterial glutathione-S-transferase and the sequence of the second extra-cellular loop of the human β1-adrenergic receptor (GST/β1-ECII). Before treatment of the animals with mutated cyclopeptides according to the present invention, progressive dilated immune cardiomyopathy is observed after 6 to 8 months of regular immunization every four weeks (FIG. 17). All of the immunized animals developed high titers of stimulatory anti-β1-ECII antibodies. The specific anti-β1-ECII titer reached a maximum between 6 and 8 months of continuously boosting the animals every 4 weeks, whereas NaCl-injected control animals developed no specific receptor antibodies (FIG. 18).
Such immunized animals were used for the application of mutant cyclopeptides according to the present invention. The in-vivo blocking effect of both 25AA and 18AA Cys/Ser mutant cyclopeptides (with a Gln closure site) were determined after a first intravenous (i.v.) injection of 1.0 mg/kg body weight (Bw) (for 18AA Cys/Ser cyclopeptides also 0.25 mg/kg/Bw) into immunized antibody-positive rats. Sera were drawn 18-20 hours after i.v. injection of the different peptides and assayed for reactivity by ELISA using the 3 Cys-containing linear 25AA Cys/Cys-peptide as an antigen.

[3] = 20-fold molar excess of peptide
[4] = 80-fold molar excess of peptide

Substance: 18AA Cys/Cys cyclopeptides: (non-mutated) 3 Cys-containing β1-ECII-homologous 18AA cyclopeptide (cyclo(ADEARRCYNDPKCCDFVQ); not fully specified (bridges); cysteine pairing not given here) [reference compound]
- antibody-titer decrease after 5 injections, compared with untreated immunized animals [1]: 89.9±3%
- decrease in circulating free anti-beta1-ECII antibodies (anti-β1-ECII antibodies; 8-fold molar excess of peptide): 46%
- decrease in circulating free anti-beta1-ECII antibodies (anti-β1-ECII antibodies; [3]): 56%
- decrease in circulating free anti-beta1-ECII antibodies (anti-β1-ECII antibodies; [4]): 71%
- blocking capacity (% of blocked versus non-blocked ELISA-reactivity) (anti-β1-ECII antibodies): 60±4%
- blocking-efficiency versus unblocked sera (anti-β1-ECII antibodies): 66.1±7.0%
- blocking efficiency (% of blocked versus non-blocked ELISA reactivity) (anti-β1-ECII antibodies): 59±2%
- blocking capacity (% of blocked versus non-blocked ELISA reactivity) (anti-β1-ECII antibodies): 67±6%

Substance: ARAESDEARRCYNDPKCCDFVTNRQ (cysteine pairing not given here) [linear 25AA Cys/Cys peptides, reference compound]
- antibody-titer decrease after 5 injections, compared with untreated immunized animals [1]: 25.8±3%
- decrease in circulating free anti-beta1-ECII antibodies (anti-β1-ECII antibodies; 8-fold molar excess of peptide): 24%
- decrease in circulating free anti-beta1-ECII antibodies (anti-β1-ECII antibodies; [3]): 35%
- decrease in circulating free anti-beta1-ECII antibodies (anti-β1-ECII antibodies; [4]): about 50%
- blocking capacity (% of blocked versus non-blocked ELISA-reactivity) (anti-β1-ECII antibodies): 55±4%

Substance: cyclo(Ala-Asp-Glu-Ala-Arg-Arg-Cys-Tyr-Asn-Asp-Pro-Lys-Ser-Cys-Asp-Phe-Val-Gln) (cyclo(ADEARRCYNDPKSCDFVQ); disulfide 7-14 (inferred)) [18AA Ser/Cys with Gln-]
- in vivo blocking capacity after the first i.v. injection ([2]; 1 mg/kg Bw, sera 18-20 hours after injection (FIGS. 14 and 15)): clearly less efficient
- fraction of rat sera blocked by the peptide (anti-β1-ECII antibodies; n=69 sera, (Gln-)cyclopeptide mutants (FIG. 10), Cys/Ser = blocked by it alone (n=64), Ser/Cys = sera blocked by both (n=5)): about 7%
- blocking efficiency (% of blocked versus non-blocked ELISA reactivity) (anti-β1-ECII antibodies): 1±2%
- blocking capacity (% of blocked versus non-blocked ELISA reactivity) (anti-β1-ECII antibodies): 47±3%

Substance: Cyclo-Ala-Arg-Ala-Glu-Ser-Asp-Glu-Ala-Arg-Arg-Cys-Tyr-Asn-Asp-Pro-Lys-Cys-Ser-Asp-Phe-Val-Thr-Asn-Arg-Gln (cyclo(ARAESDEARRCYNDPKCSDFVTNRQ); disulfide 11-17 (inferred)) [25AA Cys/Ser mutant cyclopeptides]
- initial transient increase in antibody-titers ([2]; 1.0 mg/kg Bw (FIGS. 16a and b)): transient increase in antibody-titers
- absolute decrease in antibody-titers after 9 months of treatment, of the titer at start of therapy ([2]; 1.0 mg/kg i.v. every 4 weeks): −37±13%
- decrease in circulating free anti-beta1-ECII antibodies (anti-β1-ECII antibodies; 8-fold molar excess of peptide): 30%
- decrease in circulating free anti-beta1-ECII antibodies (anti-β1-ECII antibodies; [3]): 49%
- decrease in circulating free anti-beta1-ECII antibodies (anti-β1-ECII antibodies; [4]): 83%
- blocking efficiency (% of blocked versus non-blocked ELISA reactivity) (anti-β1-ECII antibodies): 69±2%
- blocking capacity (% of blocked versus non-blocked ELISA reactivity) (anti-β1-ECII antibodies): 48±6%

Substance: cyc22AA Cys/Cys: 3 cysteine-containing cyclic 22AA beta1-ECII peptide with a Gly closure site (cyclo(RAESDEARRCYNDPKCCDFVTG); disulfide (positions not given here)) [reference compound]
- blocking-efficiency versus unblocked sera (anti-β1-ECII antibodies): 82.0±5.0%
